What was measured:
PCA reaction = assay: Anti-allergic action: passive cutaneous anaphylaxis test (PCA reaction); type: in vivo; conditions: rat, injected into a vein
Description: A rat was immunized with egg-albumin suspended in aluminum hydroxide gel in a conventional manner and a blood letting was carried out to obtain immune serum rich in IgE.
A male rat was anethtized with ether and hairs on back were sheared to intradenally inject by 0.1 ml of the immune serum solution described in Item (1) and diluted to 5-folds, at both sides with a certain distance from a medial line on the back. After 72 hours, a mixed solution of egg albumin (5 mg/kg), 2% Evans blue and a test compound ([L-Leu^17 ]-VIP-Hse or pure native VIP) or disodium cromoglycate was injected into a vein. After 30 minutes from an occasion of PCA reaction, the experimental animal was killed and pealed-off the skin to obtain a piece of the skin dyed with the coloring matter.
The coloring matter was extracted in accordance with the method described by Katayama ["Microbio. Immunol.", Vol. 22, No. 2, pages 89 (1978)] and an amount thereof was measured at 620 nm in wave length to calculate an inhibition of the PCA reaction.

arterial pressure = assay: Hypotensing action: arterial pressure after injection in femoral artery; type: in vivo; conditions: anethtized beagle dog, 0.02-10 μg/kg
Description: In a femoral artery of anethtized beagle dog, each of the VIP analogues as Test Samples was injected in a dose of 0.02-10 μg/kg and measured an arterial pressure to prepare a chart showing a relation between the dose and change in blood pressure and check an amount of dose which shall cause a reduction of 15 mmHg in blood pressure.

Molecule	Inhibition (%) of the PCA reaction (PCA reaction; dose 0.01 mg/kg) [%]	Inhibition (%) of the PCA reaction (PCA reaction; dose 0.1 mg/kg) [%]	Inhibition (%) of the PCA reaction (PCA reaction; dose 1.0 mg/kg) [%]	amount of dose causing a reduction of 15 mmHg in blood pressure, relative value (native VIP = 100%) (arterial pressure) [%]
O=C([O-])c1cc(=O)c2c(OCC(O)COc3cccc4oc(C(=O)[O-])cc(=O)c34)cccc2o1.[Na+].[Na+] [Disodium cromoglycate]	5	28	31	–
CC[C@H](C)[C@H](NC(=O)[C@H](CO)NC(=O)[C@H](CC(N)=O)NC(=O)[C@H](CC(C)C)NC(=O)[C@H](Cc1ccc(O)cc1)NC(=O)[C@H](CCCCN)NC(=O)[C@H](CCCCN)NC(=O)[C@@H](NC(=O)[C@H](C)NC(=O)[C@H](CCSC)NC(=O)[C@H](CCC(N)=O)NC(=O)[C@H](CCCCN)NC(=O)[C@H](CCCNC(=N)N)NC(=O)[C@H](CC(C)C)NC(=O)[C@H](CCCNC(=N)N)NC(=O)[C@@H](NC(=O)[C@H](Cc1ccc(O)cc1)NC(=O)[C@H](CC(N)=O)NC(=O)[C@H](CC(=O)O)NC(=O)[C@@H](NC(=O)[C@H](Cc1ccccc1)NC(=O)[C@@H](NC(=O)[C@H](C)NC(=O)[C@H](CC(=O)O)NC(=O)[C@H](CO)NC(=O)[C@@H](N)Cc1c[nH]cn1)C(C)C)[C@@H](C)O)[C@@H](C)O)C(C)C)C(=O)N[C@@H](CC(C)C)C(=O)N[C@@H](CC(N)=O)C(N)=O [Native VIP, vasoactive intestinal polypeptide]	23	72	67	100
[L-Leu^17 ]-VIP-Hse-NH(CH2)9 CH3 [[L-Leu^17]-VIP-NH(CH2)9 CH3]	–	–	–	68
